# Test system: forearm and dorsum of the foot skin
# Assay: Skin vasodilatory response to topical application of 1% methyl nicotinate, Laser Doppler Perfusion Imaging
# Format: in vivo, human
# Settings: for maximal vasodilatory response: compared with acetylcholine and sodium nitroprusside
# Method: Vasodilation induced by topical application of methyl nicotinate was evaluated and compared with the vasodilatory response to acetylcholine and sodium nitroprusside in healthy subjects and diabetic neuropathic patients. Ten diabetic patients with peripheral neuropathy and 10 age- and sex-matched healthy control subjects were enrolled. The vasodilatory response to topical application of 1% methyl nicotinate and a placebo emulsion at the forearm and dorsum of the foot skin at 4, 15, 30, 60 and 120 min was measured using Laser Doppler Perfusion Imaging. The vasodilatory response to iontophoresis of 1% acetylcholine and 1% sodium nitroprusside solutions was also evaluated.
structure (smiles),measurement,setting,value
COC(=O)c1cccnc1 [methyl nicotinate],vasodilatory response,"control group (healthy subjects), foot, topical 1%, compared to acetylcholine and sodium nitroprusside responses",higher
same,maximal vasodilatory response,"control group (healthy subjects), forearm, topical 1%",similar
same,maximal vasodilatory response,"diabetic patients with peripheral neuropathy, forearm and foot, topical 1%",similar
same,time after application at which vasodilation was present,topical 1% methyl nicotinate,5 min
same,time of decline of vasodilation to pre-application levels,topical 1% methyl nicotinate,120 min
same,time of peak vasodilation,topical 1% methyl nicotinate,15 to 30 min

# From patent publication US20050282870A1, “Peripherally-acting vasodilators” (priority 2004, published 2005)
